# Assays:
# [1] = target: T1, progesterone tripartite system (Homo sapiens, UniProt P06401); assay: progesterone bioactivity in serum of women on birth control (progesterone tripartite system); format: in vivo; details: women on fourth generation progestin
# T1 construct: expressed in transfected cells; host or cells: Saccharomyces cerevisiae W303 diploid yARUP16 transformed with pARUP32 (yARUP49)
# T1 sequence (P06401 with tags, fused parts or gaps): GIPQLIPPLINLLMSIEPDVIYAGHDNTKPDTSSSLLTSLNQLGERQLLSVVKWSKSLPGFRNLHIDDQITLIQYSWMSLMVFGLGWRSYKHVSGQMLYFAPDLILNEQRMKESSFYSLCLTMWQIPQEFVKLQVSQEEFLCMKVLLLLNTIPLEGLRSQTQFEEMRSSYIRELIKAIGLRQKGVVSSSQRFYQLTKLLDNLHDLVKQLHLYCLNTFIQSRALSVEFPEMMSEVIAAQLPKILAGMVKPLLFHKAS
# Method: Serum samples were pre-treated by diluting with an equal volume of 0.9 mg/mL K2EDTA, (150 μl of serum was added to 150 μl of 0.9 mg/mL K2 EDTA), vortexed briefly and heated for 5 min at 72 C. Pre-treated serum was added to yeast expressing the androgen or progesterone tripartite, prepared as follows.
# Yeast were inoculated from a frozen stock into synthetic media lacking leucine, uracil, and histidine supplemented with 2% dextrose. […] Twenty-five microliters of mid-log yeast were added to each well of a 384-well plate using a, BioMek 2000 (Beckman-Coulter). Serum samples were diluted with an equal volume of 0.9 mg/mL K2EDTA, (150 μL of serum was added to 150 μL of 0.9 mg/mL K2 EDTA), vortexed briefly and heated for 5 min at 72° C. Ten microliters of pre-treated sample was added to the plate. Ten microliters of serially diluted compound in H2O was incubated with 25 μL of yeast (Thermolabsystems). The plate was covered with Aeroseal sealing film (Research Products International, Palatine Ill.), and placed on a plate shaker for 5 min and the plate was incubated for 17-18 hr at 28° C. in a humidified incubator. After overnight incubation, the plate was shaken for 5 min. […] After about 2-hr incubation at room temperature, the β-galactosidase in the reaction mixture was determined using Luminskan luminometer (Thermolabsystems). […]
# LexA-DBD:PR-LBD:VP16 = target: T2, LexA-DBD:PR-LBD:VP16 (Homo sapiens, UniProt P06401); assay: yeast progesterone tripartite bioassay; format: cell-based; details: progesterone receptor tripartite
# T2 construct: expressed in transfected cells; host or cells: Saccharomyces cerevisiae W303 diploid yARUP16 transformed with pARUP32 (yARUP49)
# T2 sequence (P06401 with tags, fused parts or gaps): T1 sequence (P06401 with tags, fused parts or gaps)
# Method: Yeast were inoculated from a plate into synthetic media lacking leucine, uracil and histidine supplemented with 2% dextrose. After 18 hr incubation at 30° C., cells were washed with synthetic media lacking leucine, uracil and histidine supplemented with glycerol and resuspended in glycerol media to an absorbance at 600 nm of 0.03. Cells were grown for 4 hr then 50 μL of cells were added to each well of a 96-well plate. 50 μl of steroid in phosphate buffered saline 0.5% BSA. Cells were grown at 30° C. in a shaking water bath for 18 hr. To detect β-galactosidase activity, 25 μl of cells and 25 μl of Beta-Glo (Promega, Madison Wis.) were transferred to a luminescent 96-well plate (Fisher, Pittsburgh, Pa.). After 30 min incubation at room temperature, the reaction mixture was read using Lumimark (Bio-Rad, Hercules, Calif.).
SMILES,serum progesterone levels of women on birth control [1],levels detectable by this method (LexA-DBD:PR-LBD:VP16)
C[C@]12CCC(=O)C=C1[C@@H]1C[C@@H]1[C@H]1[C@@H]3[C@@H]4C[C@@H]4[C@@]4(CCC(=O)O4)[C@@]3(C)CC[C@@H]12 [drospireone],lower,
"CC(=O)[C@H]1CC[C@H]2[C@@H]3CCC4=CC(=O)CC[C@]4(C)[C@H]3CC[C@]12C [Progesterone, progesterone]",,"1000-100,000 pg/ml"

# Reference: patent publication US8097431B2 (priority 2004, dated 2012)
